Experimental data reported in ChEMBL document CHEMBL4007391, “Tackling Fungal Resistance by Biofilm Inhibitors” (J Med Chem, 2017).
Values after ≈ are worked out from the molar mass of the structure shown. Values belong to the compound of their own block, whether it stands above or below them.

What was measured:
[1] = tested on: Candida albicans; assay: Antibiofilm activity against Candida albicans SC5314 after 24 hrs in presence of miconazole by Cell-Titer Blue assay; format: functional
[2] = tested on: Candida albicans; assay: Antibiofilm activity against Candida albicans SC5314 clinical isolates after 24 hrs by XTT assay; format: functional
[3] = tested on: Candida albicans; assay: Antibiofilm activity against Candida albicans SC5314 after 24 hrs by Cell-Titer Blue assay; format: functional
[4] = tested on: Candida albicans; assay: Inhibition of biofilm formation of Candida albicans ATCC 90028 after 48 hrs in presence of fluconazole by XTT assay; format: functional
[5] = tested on: Candida albicans; assay: Inhibition of biofilm formation of Candida albicans ATCC 90028 after 48 hrs in presence of voriconazole by XTT assay; format: functional
[6] = tested on: Candida albicans; assay: Disruption of biofilm of Candida albicans ATCC 90028 after 48 hrs in presence of fluconazole by XTT assay; format: functional
[7] = tested on: Candida albicans; assay: Disruption of biofilm of Candida albicans ATCC 90028 after 48 hrs in presence of voriconazole by XTT assay; format: functional
[8] = tested on: Candida albicans; assay: Antibiofilm activity against Candida albicans CAF2-1 after 48 hrs by Alamar blue assay; format: functional; settings: CAF2-1, 48 h
[9] = tested on: Candida albicans; assay: Antibiofilm activity against Candida albicans SC5314 after 48 hrs by Alamar blue assay; format: functional; settings: SC5314, 48 h
[10] = tested on: Candida albicans; assay: Antibiofilm activity against fluconazole-resistant Candida albicans 29E clinical isolates after 48 hrs by Alamar blue assay; format: functional
[11] = tested on: Candida albicans; assay: Antibiofilm activity against Candida albicans CAIF-100 after 24 hrs by Cell-Titer Blue assay; format: functional
[12] = tested on: Candida albicans; assay: Antifungal activity against fluconazole-resistant Candida albicans by broth microdilution assay; format: functional
[13] = tested on: Candida albicans; assay: Antifungal activity against fluconazole-susceptible Candida albicans by broth microdilution assay; format: functional
[14] = tested on: Candida albicans; assay: Antifungal activity against Candida albicans KCTC 1940 clinical isolates after 7 days by two fold serial dilution method; format: functional; settings: KCTC 1940, 168 h
[15] = tested on: Cryptococcus neoformans; assay: Antifungal activity against Cryptococcus neoformans KCTC 7224 clinical isolates after 7 days by two fold serial dilution method; format: functional; settings: KCTC 7224, 168 h
[16] = tested on: Trichophyton mentagrophytes; assay: Antifungal activity against Trichophyton mentagrophytes KCTC 6077 clinical isolates after 7 days by two fold serial dilution method; format: functional; settings: KCTC 6077, 168 h
[17] = tested on: Candida albicans; assay: Antifungal activity against fluconazole-resistant Candida albicans after 48 hrs by broth microdilution assay; format: functional
[18] = tested on: Candida albicans; assay: Inhibition of biofilm formation of fluconazole-resistant Candida albicans at 2 to 4 ug/ml after 24 hrs by XTT assay; format: functional
[19] = tested on: Candida albicans; assay: Disruption of biofilm of fluconazole-resistant Candida albicans at 8 to 32 ug/ml after 24 hrs by XTT assay; format: functional
[20] = tested on: Candida albicans; assay: Antifungal activity against Candida albicans by broth dilution assay; format: functional
[21] = Cytotoxicity against human HepG2 assessed as reduction in cell viability after 24 hrs by CellTiter-Glo luminescent assay; format: cell-based; settings: HepG2 cells
[22] = tested on: Candida albicans; assay: Inhibition of filament formation of tet-NRG1 expressing Candida albicans after 2 to 24 hrs; format: functional

Compound: C[C@H]1[C@H](OC(=O)CCC(=O)O)O[C@@H]2O[C@@]3(C)CC[C@H]4[C@H](C)CC[C@@H]1[C@@]24OO3 [ARTESUNATE]
fractional inhibitory concentration index (FICI) [1]: <0.069

Compound: CCc1oc2ccccc2c1C(=O)c1cc(Br)c(O)c(Br)c1 [BENZBROMARONE]
IC50 ([2]; Candida albicans, SC5314, 24 h): 2 µM

Compound: Oc1c(Br)cc(Br)c2cccnc12 [BROXYQUINOLINE]
MBEC2 [3]: 1.2 µM

Compound: N=C(NCCCCCCNC(=N)NC(=N)Nc1ccc(Cl)cc1)NC(=N)Nc1ccc(Cl)cc1 [CHLORHEXIDINE]
IC50 ([2]; Candida albicans, SC5314, 24 h): 21.8 µM

Compound: CCN(CC)CCCC(C)Nc1ccnc2cc(Cl)ccc12 (centres undefined) [CHLOROQUINE]
fractional inhibitory concentration index (FICI) [4]: 0.156 - 0.25
fractional inhibitory concentration index (FICI) [5]: 0.156 - 0.25
fractional inhibitory concentration index (FICI) [6]: 0.156 - 0.25
fractional inhibitory concentration index (FICI) [7]: 0.156 - 0.25

Compound: Oc1c(Cl)cc(Cl)c2cccnc12 [CHLOROXINE]
IC50 [8]: 1.2 to 13.2 µM
IC50 [9]: 1.2 to 13.2 µM
IC50 [10]: 1.2 to 13.2 µM
IC50 ([2]; Candida albicans, SC5314, 24 h): 2.7 µM

Compound: CN(C)CC/C=C1/c2ccccc2Sc2ccc(Cl)cc21.Cl [CHLORPROTHIXENE HYDROCHLORIDE]
MBIC50 [11]: 17 µM

Compound: Oc1c(I)cc(Cl)c2cccnc12 [CLIOQUINOL]
IC50 ([2]; Candida albicans, SC5314, 24 h): 2.6 µM

Compound: C#CCN(C)CCCOc1ccc(Cl)cc1Cl.Cl [CLORGYLINE HYDROCHLORIDE]
MBIC50 [11]: 24 µM

Compound: O=C1c2cccc(O)c2C(=O)c2c(O)cccc21 [DANTHRON]
MBIC50 [11]: 12 µM

Compound: CCN(CC)CCOC(=O)C1(C2CCCCC2)CCCCC1.Cl [DICYCLOMINE HYDROCHLORIDE]
MBIC50 [11]: 60 µM

Compound: COc1ccc2cc1Oc1ccc(cc1)C[C@H]1c3cc(c(OC)cc3CCN1C)Oc1c(OC)c(OC)cc3c1[C@H](C2)N(C)CC3 [FANCHININ]
MIC80 [12]: 64 µg/mL (≈ 103 µM)
MIC80 [13]: 64 µg/mL (≈ 103 µM)

Compound: CN(C)c1ccc(C(=C2C=CC(=[N+](C)C)C=C2)c2ccc(N(C)C)cc2)cc1.[Cl-] [GENTIAN VIOLET]
MBEC2 [3]: 1.5 µM

Compound: Oc1c(Cl)cc(Cl)c(Cl)c1Cc1c(O)c(Cl)cc(Cl)c1Cl [HEXACHLOROPHENE]
MBEC2 [3]: 9.3 µM
IC50 ([2]; Candida albicans, SC5314, 24 h): 5.1 µM

MIC [14]: 16 to 32 µg/mL (≈ 60.1 to 120 µM)
MIC [15]: 25 µg/mL (≈ 93.9 µM)
MIC [16]: 25 µg/mL (≈ 93.9 µM)
Compound: C=CCc1ccc(O)c(-c2ccc(O)c(CC=C)c2)c1 [HONOKIOL]

MIC [14]: 16 to 32 µg/mL (≈ 60.1 to 120 µM)
MIC [15]: 25 µg/mL (≈ 93.9 µM)
MIC [16]: 25 µg/mL (≈ 93.9 µM)
Compound: C=CCc1ccc(O)c(-c2cc(CC=C)ccc2O)c1 [MAGNOLOL]

Compound: CCCCCCCCCCCCCCCCOP(=O)([O-])OCC[N+](C)(C)C [MILTEFOSINE]
MIC [17]: 0.5 to 2 µg/mL (≈ 1.23 to 4.91 µM)
inhibition (INH) [18]: 90%
inhibition (INH) [19]: >90%

Compound: O=[N+]([O-])c1ccc(O)c2ncccc12 [NITROXOLINE]
IC50 [8]: 1 to 5.8 µM
IC50 [9]: 1 to 5.8 µM
IC50 [10]: 1 to 5.8 µM
MBEC2 [3]: 3.1 µM

Compound: C1CCC(C(CC2CCCCN2)C2CCCCC2)CC1.O=C(O)/C=C\C(=O)O (centres undefined) [PERHEXILINE MALEATE]
MBIC50 [11]: 39 µM

MIC80 [20]: 32 µg/mL (≈ 125 µM)
Compound: COc1cc(/C=C/c2ccc(O)cc2)cc(OC)c1 [PTEROSTILBENE]

Compound: Cc1cc(/C=C/c2ccc3cc(N(C)C)ccc3[n+]2C)c(C)n1-c1ccccc1.Cc1cc(/C=C/c2ccc3cc(N(C)C)ccc3[n+]2C)c(C)n1-c1ccccc1.O=C([O-])c1cc2ccccc2c(Cc2c(O)c(C(=O)[O-])cc3ccccc23)c1O [PYRVINIUM PAMOATE]
MBEC2 [3]: 3.9 µM
IC50 ([2]; Candida albicans, SC5314, 24 h): 6.7 µM

IC50 [22]: 0.514 µM
Compound: CO[C@H]1C[C@@H]2CC[C@@H](C)[C@@](O)(O2)C(=O)C(=O)N2CCCC[C@H]2C(=O)O[C@H]([C@H](C)C[C@@H]2CC[C@@H](O)[C@H](OC)C2)CC(=O)[C@H](C)/C=C(\C)[C@@H](O)[C@@H](OC)C(=O)[C@H](C)C[C@H](C)/C=C/C=C/C=C/1C [SIROLIMUS]
CC50 at 24 h [21]: 67.2 µM

Compound: CCCCCCCCCCCCCCCC[N+](C)(C)CCN(Cc1ccc(OC)cc1)c1ncccn1 [THONZONIUM BROMIDE]
IC50 ([2]; Candida albicans, SC5314, 24 h): 13 µM

Compound: CN(C)CCOc1ccc(/C(=C(/CCCl)c2ccccc2)c2ccccc2)cc1.O=C(O)CC(O)(CC(=O)O)C(=O)O [TOREMIFENE CITRATE]
MBIC50 [11]: 19.5 µM

Compound: THIMEROSAL
IC50 [2]: 0.2 µM
